The text below walks through data of patent US8614201B2 (Janssen Pharmaceutica NV, priority 2009, dated 2013).

A value given as a limit tells only on which side of the number the result lay.

The target of this assay is Human TRPA1 (Homo sapiens, UniProt O75762). In words: Alternative TRPA1 Ca2+ fluorometry assay (hTRPA1/TREx-HEK293 cells, Fluo-4, FDSS 6000). It counts as cell-based. Also noted: expressed in transfected cells. The conditions noted are these: Fluo-4-AM, agonist 6,11-dihydro-5H-dibenzo[b,e]azepine-10-carboxylic acid methyl ester 25 nM, procedure used for Examples 184, 190 to 192, 194 to 316. The method, boiled down: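 Tetracycline-induced (50 ng/ml, 24 h) hTRPA1/TREx-HEK293 cells were loaded with Fluo-4-AM and probenecid. Compound (1% DMSO final) was added after a 12 s baseline and the Ca2+ signal followed for 14 min, then 25 nM TRPA1 agonist dibenzazepine carboxylic acid methyl ester was applied. Signal is Em540 (ex 488 nm) relative to the first baseline reading.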
Human TRPA1, sequence (O75762 whole entry): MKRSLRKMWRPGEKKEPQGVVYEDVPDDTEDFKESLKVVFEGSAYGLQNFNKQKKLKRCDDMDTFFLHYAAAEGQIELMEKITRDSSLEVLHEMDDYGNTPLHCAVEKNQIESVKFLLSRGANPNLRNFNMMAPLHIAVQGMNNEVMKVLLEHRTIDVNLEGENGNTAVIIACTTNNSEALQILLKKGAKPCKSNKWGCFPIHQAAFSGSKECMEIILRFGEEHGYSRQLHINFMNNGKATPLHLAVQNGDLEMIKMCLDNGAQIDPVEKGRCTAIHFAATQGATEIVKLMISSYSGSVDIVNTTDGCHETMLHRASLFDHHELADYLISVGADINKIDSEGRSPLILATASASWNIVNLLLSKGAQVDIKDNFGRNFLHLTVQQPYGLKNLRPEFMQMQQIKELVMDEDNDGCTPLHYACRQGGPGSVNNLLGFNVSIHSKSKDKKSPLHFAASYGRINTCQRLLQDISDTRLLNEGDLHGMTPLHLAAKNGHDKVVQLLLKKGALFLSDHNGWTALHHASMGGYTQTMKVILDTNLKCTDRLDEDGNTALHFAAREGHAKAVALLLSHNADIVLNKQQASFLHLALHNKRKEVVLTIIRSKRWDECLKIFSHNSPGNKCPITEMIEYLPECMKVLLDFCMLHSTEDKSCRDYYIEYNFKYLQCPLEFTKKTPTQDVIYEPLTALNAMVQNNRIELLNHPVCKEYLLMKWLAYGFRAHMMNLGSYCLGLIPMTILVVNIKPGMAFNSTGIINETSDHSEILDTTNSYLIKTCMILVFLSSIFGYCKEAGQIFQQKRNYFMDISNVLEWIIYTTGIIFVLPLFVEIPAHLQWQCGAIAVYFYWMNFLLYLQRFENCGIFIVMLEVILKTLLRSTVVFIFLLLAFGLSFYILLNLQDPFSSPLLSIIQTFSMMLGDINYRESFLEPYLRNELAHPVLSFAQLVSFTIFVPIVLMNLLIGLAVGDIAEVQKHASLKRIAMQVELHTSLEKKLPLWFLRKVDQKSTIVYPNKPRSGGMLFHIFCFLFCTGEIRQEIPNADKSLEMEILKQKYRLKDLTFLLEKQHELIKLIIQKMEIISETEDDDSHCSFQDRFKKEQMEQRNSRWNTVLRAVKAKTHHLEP

As for `COc1ccc(F)cc1-c1cc(CNC(=O)[C@@H]2CCCN2S(=O)(=O)c2ccc(F)cc2)nc(N2CCN(c3ccccc3F)CC2)n1` [Example 230, 1-(4-Fluoro-benzenesulfonyl)-pyrrolidine-2S-carboxylic acid {6-(5-fluoro-2-methoxy-phenyl)-2-[4-(2-fluoro-phenyl)-piperazin-1-yl]-pyrimidin-4-ylmethyl}-amide], the IC50 turned out to be 1290 nM.
For `Cc1ccc(C)c(-c2cc(CNC(=O)[C@@H]3CCCN3S(=O)(=O)c3ccc(F)cc3)nc(N3CCN(c4ccccc4F)CC3)n2)c1` [Example 232, 1-(4-Fluoro-benzenesulfonyl)-pyrrolidine-2S-carboxylic acid {6-(2,5-dimethyl-phenyl)-2-[4-(2-fluoro-phenyl)-piperazin-1-yl]-pyrimidin-4-ylmethyl}-amide], the IC50 turned out to be 1120 nM.
For `O=C(NCc1cc(-c2ccc(F)cc2F)nc(N2CCN(c3ccccc3F)CC2)n1)[C@@H]1CCCN1S(=O)(=O)c1ccc(F)cc1` [Example 233, 1-(4-Fluoro-benzenesulfonyl)-pyrrolidine-2S-carboxylic acid {6-(2,4-difluoro-phenyl)-2-[4-(2-fluoro-phenyl)-piperazin-1-yl]-pyrimidin-4-ylmethyl}-amide] the value was around 372 nM; for `O=C(NCc1cc(-c2cccc(OC(F)(F)F)c2)nc(N2CCN(c3ccccc3F)CC2)n1)[C@@H]1CCCN1S(=O)(=O)c1ccc(F)cc1` [Example 234, 1-(4-Fluoro-benzenesulfonyl)-pyrrolidine-2S-carboxylic acid [2-[4-(2-fluoro-phenyl)-piperazin-1-yl]-6-(3-trifluoromethoxy-phenyl)-pyrimidin-4-ylmethyl]-amide], above 10000 nM; for `N#Cc1cccc(-c2cc(CNC(=O)[C@@H]3CCCN3S(=O)(=O)c3ccc(F)cc3)nc(N3CCN(c4ccccc4F)CC3)n2)c1` [Example 235, 1-(4-Fluoro-benzenesulfonyl)-pyrrolidine-2S-carboxylic acid {6-(3-cyano-phenyl)-2-[4-(2-fluoro-phenyl)-piperazin-1-yl]-pyrimidin-4-ylmethyl}-amide], 5890 nM.
Under `Cc1cc(C)cc(-c2cc(CNC(=O)[C@@H]3CCCN3S(=O)(=O)c3ccc(F)cc3)nc(N3CCN(c4ccccc4F)CC3)n2)c1` [Example 236, 1-(4-Fluoro-benzenesulfonyl)-pyrrolidine-2S-carboxylic acid {6-(3,5-dimethyl-phenyl)-2-[4-(2-fluoro-phenyl)-piperazin-1-yl]-pyrimidin-4-ylmethyl}-amide] stands above 10000 nM; under `CN(C)c1cccc(-c2cc(CNC(=O)[C@@H]3CCCN3S(=O)(=O)c3ccc(F)cc3)nc(N3CCN(c4ccccc4F)CC3)n2)c1` [Example 237, 1-(4-Fluoro-benzenesulfonyl)-pyrrolidine-2S-carboxylic acid {6-(3-dimethylamino-phenyl)-2-[4-(2-fluoro-phenyl)-piperazin-1-yl]-pyrimidin-4-ylmethyl}-amide], above 10000 nM; under `O=C(NCc1cc(-c2ccc3c(c2)OCO3)nc(N2CCN(c3ccccc3F)CC2)n1)[C@@H]1CCCN1S(=O)(=O)c1ccc(F)cc1` [Example 238, 1-(4-Fluoro-benzenesulfonyl)-pyrrolidine-2S-carboxylic acid {6-benzo[1,3]dioxol-5-yl-2-[4-(2-fluoro-phenyl)-piperazin-1-yl]-pyrimidin-4-ylmethyl}-amide], 1290 nM.
`O=C(NCc1cc(-c2cccc(Cl)c2)nc(N2CCN(c3ccccc3F)CC2)n1)[C@@H]1CCCN1S(=O)(=O)c1ccc(F)cc1` [Example 239, 1-(4-Fluoro-benzenesulfonyl)-pyrrolidine-2S-carboxylic acid {6-(3-chloro-phenyl)-2-[4-(2-fluoro-phenyl)-piperazin-1-yl]-pyrimidin-4-ylmethyl}-amide] gave a 50% inhibitory concentration (IC50) of 5010 nM. Against the preceding compound, the IC50 is about 3.9-fold higher.
The compound `Cc1cccc(C)c1-c1cc(CNC(=O)[C@@H]2CCCN2S(=O)(=O)c2ccc(F)cc2)nc(N2CCN(c3ccccc3F)CC2)n1` [Example 240, 1-(4-Fluoro-benzenesulfonyl)-pyrrolidine-2S-carboxylic acid {6-(2,6-dimethyl-phenyl)-2-[4-(2-fluoro-phenyl)-piperazin-1-yl]-pyrimidin-4-ylmethyl}-amide] gave an IC50 of around 933 nM.
For `O=C(NCc1cc(-c2ccc(Cl)cc2)nc(N2CCN(c3ccccc3F)CC2)n1)[C@@H]1CCCN1S(=O)(=O)c1ccc(F)cc1` [Example 241, 1-(4-Fluoro-benzenesulfonyl)-pyrrolidine-2-carboxylic acid {6-(4-chloro-phenyl)-2-[4-(2-fluoro-phenyl)-piperazin-1-yl]-pyrimidin-4-ylmethyl}-amide] the value was 417 nM; for `O=C(NCc1cc(-c2ccccc2Cl)nc(N2CCN(c3ccccc3F)CC2)n1)[C@@H]1CCCN1S(=O)(=O)c1ccc(F)cc1` [Example 242, 1-(4-Fluoro-benzenesulfonyl)-pyrrolidine-2-carboxylic acid {6-(2-chloro-phenyl)-2-[4-(2-fluoro-phenyl)-piperazin-1-yl]-pyrimidin-4-ylmethyl}-amide], around 1100 nM; for `O=C(NCc1cc(-c2cccc(C(F)(F)F)c2)nc(N2CCN(c3ccccc3F)CC2)n1)[C@@H]1CCCN1S(=O)(=O)c1ccc(F)cc1` [Example 243, 1-(4-Fluoro-benzenesulfonyl)-pyrrolidine-2S-carboxylic acid [2-[4-(2-fluoro-phenyl)-piperazin-1-yl]-6-(3-trifluoromethyl-phenyl)-pyrimidin-4-ylmethyl]-amide], 3800 nM.
`O=C(NCc1cc(-c2ccc(F)c(Cl)c2)nc(N2CCN(c3ccccc3F)CC2)n1)[C@@H]1CCCN1S(=O)(=O)c1ccc(F)cc1` [Example 244, 1-(4-Fluoro-benzenesulfonyl)-pyrrolidine-2-carboxylic acid {6-(3-chloro-4-fluoro-phenyl)-2-[4-(2-fluoro-phenyl)-piperazin-1-yl]-pyrimidin-4-ylmethyl}-amide] returned an IC50 above 10000 nM.
The compound `O=C(NCc1cc(-c2ccccc2F)nc(N2CCN(c3ccccc3F)CC2)n1)[C@@H]1CCCN1S(=O)(=O)c1ccc(F)cc1` [Example 245, 1-(4-Fluoro-benzenesulfonyl)-pyrrolidine-2S-carboxylic acid {6-(2-fluoro-phenyl)-2-[4-(2-fluoro-phenyl)-piperazin-1-yl]-pyrimidin-4-ylmethyl}-amide] returned a concentration for half-maximal inhibition (IC50) of 2460 nM.
Compound `O=C(NCc1cc(-c2cccc(F)c2)nc(N2CCN(c3ccccc3F)CC2)n1)[C@@H]1CCCN1S(=O)(=O)c1ccc(F)cc1` [Example 246, 1-(4-Fluoro-benzenesulfonyl)-pyrrolidine-2S-carboxylic acid {6-(3-fluoro-phenyl)-2-[4-(2-fluoro-phenyl)-piperazin-1-yl]-pyrimidin-4-ylmethyl}-amide] registered an IC50 of 2000 nM.
`Cc1ccccc1-c1cc(CNC(=O)[C@@H]2CCCN2S(=O)(=O)c2ccc(F)cc2)nc(N2CCN(c3ccccc3F)CC2)n1` [Example 247, 1-(4-Fluoro-benzenesulfonyl)-pyrrolidine-2S-carboxylic acid {2-[4-(2-fluoro-phenyl)-piperazin-1-yl]-6-o-tolyl-pyrimidin-4-ylmethyl}-amide] gave a concentration for half-maximal inhibition (IC50) of around 1440 nM.
`O=C(NCc1cc(-c2ccc(Cl)c(Cl)c2)nc(N2CCN(c3ccccc3F)CC2)n1)[C@@H]1CCCN1S(=O)(=O)c1ccc(F)cc1` [Example 248, 1-(4-Fluoro-benzenesulfonyl)-pyrrolidine-2S-carboxylic acid {6-(3,4-dichloro-phenyl)-2-[4-(2-fluoro-phenyl)-piperazin-1-yl]-pyrimidin-4-ylmethyl}-amide]: the IC50 was around 676 nM.
For `O=C(NCc1cc(-c2cc(F)cc(F)c2)nc(N2CCN(c3ccccc3F)CC2)n1)[C@@H]1CCCN1S(=O)(=O)c1ccc(F)cc1` [Example 249, 1-(4-Fluoro-benzenesulfonyl)-pyrrolidine-2S-carboxylic acid {6-(3,5-difluoro-phenyl)-2-[4-(2-fluoro-phenyl)-piperazin-1-yl]-pyrimidin-4-ylmethyl}-amide] the value was 1590 nM.
Compound `O=C(NCc1cc(-c2ccc(Cl)cc2Cl)nc(N2CCN(c3ccccc3F)CC2)n1)[C@@H]1CCCN1S(=O)(=O)c1ccc(F)cc1` [Example 250, 1-(4-Fluoro-benzenesulfonyl)-pyrrolidine-2S-carboxylic acid {6-(2,4-dichloro-phenyl)-2-[4-(2-fluoro-phenyl)-piperazin-1-yl]-pyrimidin-4-ylmethyl}-amide] yielded a concentration for half-maximal inhibition (IC50) of 851 nM.
Under `O=C(NCc1cc(-c2ccccc2)nc(N2CCN(c3ccccc3F)CC2)n1)[C@@H]1CCCN1S(=O)(=O)c1ccc(F)cc1` [Example 251, 1-(4-Fluoro-benzenesulfonyl)-pyrrolidine-2S-carboxylic acid {2-[4-(2-fluoro-phenyl)-piperazin-1-yl]-6-phenyl-pyrimidin-4-ylmethyl}-amide] stands 2510 nM.
For the compound `O=C(NCc1cc(-c2ccc(C(F)(F)F)cc2)nc(N2CCN(c3ccccc3F)CC2)n1)[C@@H]1CCCN1S(=O)(=O)c1ccc(F)cc1Cl` [Example 252, 1-(2-Chloro-4-fluoro-benzenesulfonyl)-pyrrolidine-2S-carboxylic acid [2-[4-(2-fluoro-phenyl)-piperazin-1-yl]-6-(4-trifluoromethyl-phenyl)-pyrimidin-4-ylmethyl]-amide], the IC50 is above 10000 nM.
`COc1cccc(S(=O)(=O)N2CCC[C@H]2C(=O)NCc2cc(-c3ccc(C(F)(F)F)cc3)nc(N3CCN(c4ccccc4F)CC3)n2)c1` [Example 253, 1-(3-Methoxy-benzenesulfonyl)-pyrrolidine-2S-carboxylic acid [2-[4-(2-fluoro-phenyl)-piperazin-1-yl]-6-(4-trifluoromethyl-phenyl)-pyrimidin-4-ylmethyl]-amide] gave a concentration for half-maximal inhibition (IC50) above 10000 nM.
